In the supplement of paper PMC10307832:

What was measured:
Assay in all cases: relative viability (nuclei count vs DMSO), 5 days (fraction); higher = more cells survive
[1] = tested on: NCI-H647
Method in brief: (§1)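 Each reported value is a median over duplicate plates. It expresses relative viability: treated-well nuclei count divided by vehicle-well nuclei count. Lung cancer cell lines in 1536-well plates were dosed by pin tool a day after seeding, alone with one drug or with a fixed anchor-drug dose plus five library-drug doses (not always all listed) in √10 steps, and nuclei were counted after 5 days.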

[2] = tested on: NCI-H2347
Method in brief: as §1

[3] = tested on: PC-14
Method in brief: as §1

[4] = tested on: NCI-H661
Method in brief: as §1

[5] = tested on: NCI-H1993
Method in brief: as §1

[6] = tested on: SW 1573
Method in brief: as §1

[7] = tested on: NCI-H322M
Method in brief: as §1

[8] = tested on: NCI-H1915
Method in brief: as §1

[9] = tested on: NCI-H358
Method in brief: as §1

[10] = tested on: EMC-BAC-2
Method in brief: as §1

[11] = tested on: HOP-62
Method in brief: as §1

[12] = tested on: NCI-H1563
Method in brief: as §1

[13] = tested on: NCI-H2085
Method in brief: as §1

[14] = tested on: NCI-H727
Method in brief: as §1

[15] = tested on: NCI-H2023
Method in brief: as §1

[16] = tested on: LCLC-97TM1
Method in brief: as §1

[17] = tested on: LXF-289
Method in brief: as §1

[18] = tested on: NCI-H2126
Method in brief: as §1

[19] = tested on: H3255
Method in brief: as §1

[20] = tested on: SK-LU-1
Method in brief: as §1

[21] = tested on: BEN
Method in brief: as §1

[22] = tested on: NCI-H2009
Method in brief: as §1

`COc1cc(N2CCC(C(N)=O)CC2)ccc1Nc1nc(N)c(Cl)c(Nc2ccccc2S(=O)(=O)C(C)C)n1` [HG-5-88-01] + Cc1nc(NC(=O)N2CCC[C@H]2C(N)=O)sc1-c1ccnc(C(C)(C)C(F)(F)F)c1 [Alpelisib] (partner 2 µM) gave a relative viability ([1]; first compound 0.04 µM) of 1.09, a relative viability ([1]; first compound 0.1265 µM) of 1.15 and a relative viability ([1]; first compound 1.265 µM) of 1.09. The relative viability ([1]; first compound 4 µM) was 1.4, the relative viability ([2]; first compound 0.04 µM) was 1.09 and the relative viability ([2]; first compound 0.1265 µM) was 1.14. It also gave a relative viability ([2]; first compound 0.4 µM) of 1.1, a relative viability ([2]; first compound 1.265 µM) of 0.984 and a relative viability ([2]; first compound 4 µM) of 0.973. The relative viability ([3]; first compound 0.04 µM) was 0.884, the relative viability ([3]; first compound 0.1265 µM) was 0.849 and the relative viability ([3]; first compound 0.4 µM) was 0.882. It also gave a relative viability ([3]; first compound 1.265 µM) of 0.89, a relative viability ([3]; first compound 4 µM) of 0.851 and a relative viability ([4]; first compound 0.04 µM) of 0.609. It also gave a relative viability ([4]; first compound 0.1265 µM) of 0.773, a relative viability ([4]; first compound 0.4 µM) of 0.916 and a relative viability ([4]; first compound 4 µM) of 0.693. For the same compound, the relative viability ([5]; first compound 0.04 µM) was 0.709, the relative viability ([5]; first compound 0.1265 µM) was 0.596 and the relative viability ([5]; first compound 0.4 µM) was 0.566. The relative viability ([5]; first compound 1.265 µM) was 0.682, the relative viability ([5]; first compound 4 µM) was 0.751 and the relative viability ([6]; first compound 0.04 µM) was 0.866. It also gave a relative viability ([6]; first compound 0.1265 µM) of 0.571, a relative viability ([6]; first compound 0.4 µM) of 0.866 and a relative viability ([6]; first compound 1.265 µM) of 0.632. The relative viability ([6]; first compound 4 µM) was 0.605, the relative viability ([7]; first compound 0.04 µM) was 0.774 and the relative viability ([7]; first compound 0.1265 µM) was 0.841. For the same compound, the relative viability ([7]; first compound 0.4 µM) was 0.903, the relative viability ([7]; first compound 1.265 µM) was 0.726 and the relative viability ([7]; first compound 4 µM) was 0.639. The relative viability ([8]; first compound 0.04 µM) was 1.08, the relative viability ([8]; first compound 0.1265 µM) was 1.03 and the relative viability ([8]; first compound 0.4 µM) was 1.12. The relative viability ([8]; first compound 1.265 µM) was 1.04, the relative viability ([8]; first compound 4 µM) was 0.958 and the relative viability ([9]; first compound 0.04 µM) was 0.845. The relative viability ([9]; first compound 0.1265 µM) was 0.692, the relative viability ([9]; first compound 0.4 µM) was 0.497 and the relative viability ([9]; first compound 1.265 µM) was 0.432. For the same compound, the relative viability ([9]; first compound 4 µM) was 0.323, the relative viability ([10]; first compound 0.04 µM) was 0.729 and the relative viability ([10]; first compound 0.1265 µM) was 0.757. It also gave a relative viability ([10]; first compound 0.4 µM) of 0.723, a relative viability ([10]; first compound 1.265 µM) of 0.703 and a relative viability ([10]; first compound 4 µM) of 0.628. The relative viability ([11]; first compound 0.04 µM) was 0.835, the relative viability ([11]; first compound 0.1265 µM) was 0.924 and the relative viability ([11]; first compound 0.4 µM) was 0.999. For the same compound, the relative viability ([11]; first compound 1.265 µM) was 0.981, the relative viability ([11]; first compound 4 µM) was 1.41 and the relative viability ([12]; first compound 0.04 µM) was 1.05. It also gave a relative viability ([12]; first compound 0.1265 µM) of 0.877, a relative viability ([12]; first compound 0.4 µM) of 0.909 and a relative viability ([12]; first compound 1.265 µM) of 0.844. For the same compound, the relative viability ([12]; first compound 4 µM) was 0.993, the relative viability ([13]; first compound 0.04 µM) was 1.05 and the relative viability ([13]; first compound 0.1265 µM) was 1. It also gave a relative viability ([13]; first compound 0.4 µM) of 0.908, a relative viability ([13]; first compound 1.265 µM) of 0.973 and a relative viability ([13]; first compound 4 µM) of 0.902. The relative viability ([14]; first compound 0.04 µM) was 0.517, the relative viability ([14]; first compound 0.1265 µM) was 0.512 and the relative viability ([14]; first compound 0.4 µM) was 0.519. It also gave a relative viability ([14]; first compound 1.265 µM) of 0.329, a relative viability ([14]; first compound 4 µM) of 0.27 and a relative viability ([15]; first compound 0.04 µM) of 0.659. It also gave a relative viability ([15]; first compound 0.1265 µM) of 0.54, a relative viability ([15]; first compound 0.4 µM) of 0.539 and a relative viability ([15]; first compound 1.265 µM) of 0.358. The relative viability ([15]; first compound 4 µM) was 0.474, the relative viability ([16]; first compound 0.04 µM) was 0.264 and the relative viability ([16]; first compound 0.1265 µM) was 0.217. It also gave a relative viability ([16]; first compound 0.4 µM) of 0.198, a relative viability ([16]; first compound 1.265 µM) of 0.196 and a relative viability ([16]; first compound 4 µM) of 0.142. It also gave a relative viability ([17]; first compound 0.04 µM) of 1.05, a relative viability ([17]; first compound 0.1265 µM) of 1.04 and a relative viability ([17]; first compound 0.4 µM) of 1. It also gave a relative viability ([17]; first compound 1.265 µM) of 1.08, a relative viability ([17]; first compound 4 µM) of 0.968 and a relative viability ([18]; first compound 0.04 µM) of 0.81. It also gave a relative viability ([18]; first compound 0.1265 µM) of 0.79, a relative viability ([18]; first compound 0.4 µM) of 0.774 and a relative viability ([18]; first compound 1.265 µM) of 0.681. The relative viability ([18]; first compound 4 µM) was 0.716, the relative viability ([19]; first compound 0.04 µM) was 0.714 and the relative viability ([19]; first compound 0.1265 µM) was 0.63. It also gave a relative viability ([19]; first compound 0.4 µM) of 0.645, a relative viability ([19]; first compound 4 µM) of 0.422 and a relative viability ([20]; first compound 0.04 µM) of 1.18. For the same compound, the relative viability ([20]; first compound 0.1265 µM) was 0.988, the relative viability ([20]; first compound 0.4 µM) was 0.895 and the relative viability ([20]; first compound 1.265 µM) was 0.966. It also gave a relative viability ([20]; first compound 4 µM) of 0.797, a relative viability ([21]; first compound 0.04 µM) of 0.948 and a relative viability ([21]; first compound 0.1265 µM) of 1.03. The relative viability ([21]; first compound 0.4 µM) was 1.04, the relative viability ([21]; first compound 1.265 µM) was 0.853 and the relative viability ([21]; first compound 4 µM) was 1.15. For the same compound, the relative viability ([22]; first compound 0.04 µM) was 1.13, the relative viability ([22]; first compound 0.1265 µM) was 1.05 and the relative viability ([22]; first compound 0.4 µM) was 1.05. The relative viability ([22]; first compound 1.265 µM) was 1.17 and the relative viability ([22]; first compound 4 µM) was 1.14.
